Results: US6534676B2, “Method to treat chronic heart failure and/or elevated cholesterol levels using 3,5-diiodothyropropionic acid and method to prepare same” (The Arizona Board of Regents on Behalf of the University of …, priority 2001, dated 2003)

Experiments:
[1] = Cardiac performance, chronotropic and metabolic effect compared with L-thyroxine (background); assay type: in vivo
Description: Because of potential adverse effects of thyroid hormone, such as metabolic stimulation and tachycardia, what is required are thyroid hormone analogs with fewer undesirable side effects. […] Like thyroid hormone, DITPA binds to nuclear T3 receptors of the c-erbA proto-oncogene family.

[2] = post-infarction rats, border zone around the infarct; cited from earlier work
[3] = Heart failure patients: serum thyroid function tests; assay type: in vivo, human; conditions: for Thyrotropin: baseline 2.47 ± 0.6; for FreeT4: baseline 1.19 ± 0.1; for ReverseT3: baseline 197 ± 27
Method: (§1) All patients were hospitalized before initiating treatment and a right heart catheterization, radionuclide ejection fraction and echocardiogram were performed. Serum samples were drawn for measurement of thyrotropin, total T4, free T4, and reverse T3.
(§2) DITPA cross-reacted with antibodies for detection of T3, which consequently was not measured. Renal and hepatic function tests also were performed. Patients were randomly assigned in double-blind fashion to receive either DITPA at a dosage of 1.875 mg/kg daily or placebo in two or three divided doses. For the first four days of drug administration patients were monitored on a telemetry unit. Thereafter, weekly electrocardiograms were performed and patients were examined for changes in thyroid or cardiac status or evidence of drug toxicity.
(§3) At the end of two weeks an echocardiogram was obtained. If there was no clinical evidence of progression of heart failure or development of an arrhythmia the dose of DITPA was increased to 3.75 mg/kg daily. After an additional two weeks of treatment with the higher dosage of the drug patients were readmitted to the hospital and the tests performed in the initial evaluation were repeated.
(§4) Right heart catheterization was performed after the patient had been fasted overnight; no premedication was given. Pulmonary artery, pulmonary capillary wedge and right heart pressures were measured with a 7 Fr Swan-Ganz catheter introduced into the right femoral vein. Blood pressures were recorded with an automated arm cuff system. After an initial stabilization period of 20 to 30 minutes, the resting hemodynamic measurements were obtained. Thermodilution cardiac output measurements were averaged from five recordings after discarding the highest and lowest values. All blood tests were performed in the Clinical Pathology Laboratory at the Southern Arizona Veterans Administration Health Care System.

[4] = Heart failure patients: right heart catheterization hemodynamics; assay type: in vivo, human
Method: as §1, §2, §3, §4

[5] = Dose-ranging study of DITPA in normal volunteers: clinical variables and tolerability; assay type: in vivo, human; conditions: for Weight: normal volunteers n=7, oral, baseline 84.2 ± 2.6; for Weight / Heart Rate / Diastolic Blood Pressure / Systolic Blood Pressure: mean ± SE; for Heart Rate: baseline 55.4 ± 2.9; for Diastolic Blood Pressure: baseline 77.1 ± 3.5; for Systolic Blood Pressure: baseline 121.3 ± 4.4
Method: In clinical trials discussed below wherein DITPA was orally administered to volunteers and patients, the DITPA was mixed under the supervision of a registered pharmacist with lactose and packed into gelatin capsules containing 50 mg of the active ingredient. Identical capsules were packed with lactose to serve as placebo medication.
A dose-ranging study was performed with seven (7) normal volunteers. Study participants comprised men between the ages of 18 and 65 years of age. Before participating in the study, a complete physical examination, electrocardiogram, and echocardiogram were obtained. A complete blood count (CBC), blood chemistries (including liver enzymes and lipids profile), and thyroid function studies (total T3, total T4, free T4, rT3, and thyrotropin) were measured.
On day 1, these normal volunteers were started on 1.875 mg/kg in two divided doses per day. This treatment regimen was continued for two weeks. At the end of the second week, the initial laboratory studies were repeated. The dose was then doubled to 3.75 mg/kg and the volunteers were treated for two additional weeks. At the end of this time physical examination and all laboratory variables again were measured.
Volunteer data were analyzed using Student's paired t-test. Baseline data in DITPA and placebo groups were compared by Student's unpaired t-test. Comparison of placebo and drug treated groups was made by repeated measures ANOVA (SPSS Version 9.5, SPSS Chicago, 11). If P values for drug-time interactions were significant a priori contrasts were performed of the drug-time interaction for two weeks versus baseline. When data were available only at baseline and four week, comparisons were made by difference scores. Baseline values for each participant were subtracted from values after four weeks of treatment and the differences between DITPA and placebo treatments then were compared. P values by two-tailed testing less than 0.05 were considered to be significant.
As noted above, seven normal volunteers received DITPA at two dosage levels for two and four weeks.

[6] = Heart failure patients: serum lipid levels; assay type: in vivo, human; conditions: for LDL-cholesterol: text baseline 107.3±42.8 mg/dL; for HDL Cholesterol / Triglyceride: serum; for HDL Cholesterol: baseline 32.8 ± 2.8; for Triglyceride: baseline 248.7 ± 40.4
Method: DITPA cross-reacted with antibodies for detection of T3, which consequently was not measured. Renal and hepatic function tests also were performed. Patients were randomly assigned in double-blind fashion to receive either DITPA at a dosage of 1.875 mg/kg daily or placebo in two or three divided doses. For the first four days of drug administration patients were monitored on a telemetry unit. Thereafter, weekly electrocardiograms were performed and patients were examined for changes in thyroid or cardiac status or evidence of drug toxicity. At the end of two weeks an echocardiogram was obtained. If there was no clinical evidence of progression of heart failure or development of an arrhythmia the dose of DITPA was increased to 3.75 mg/kg daily. After an additional two weeks of treatment with the higher dosage of the drug patients were readmitted to the hospital and the tests performed in the initial evaluation were repeated. Right heart catheterization was performed after the patient had been fasted overnight; no premedication was given. Pulmonary artery, pulmonary capillary wedge and right heart pressures were measured with a 7 Fr Swan-Ganz catheter introduced into the right femoral vein. Blood pressures were recorded with an automated arm cuff system. After an initial stabilization period of 20 to 30 minutes, the resting hemodynamic measurements were obtained. Thermodilution cardiac output measurements were averaged from five recordings after discarding the highest and lowest values. All blood tests were performed in the Clinical Pathology Laboratory at the Southern Arizona Veterans Administration Health Care System.

[7] = serum, after 2 weeks (1.875 mg/kg daily)
[8] = serum, after 4 weeks (3.75 mg/kg daily)
[9] = normal volunteers, after 2 weeks (1.875 mg/kg/day)
[10] = normal volunteers, after 4 weeks (3.75 mg/kg/day)
[11] = heart failure patients, after four weeks
[12] = heart failure patients, after two weeks
[13] = after 2 weeks (1.875 mg/kg daily)
[14] = after 4 weeks (3.75 mg/kg daily)

## O=C(O)CCc1cc(I)c(Oc2ccc(O)cc2)c(I)c1 [DITPA, 3,5-Diiodothyropropionic acid]
[1]; at increased cardiac performance
  chronotropic effect relative to L-thyroxine: approximately half of the chronotropic effect
[1]; in vivo
  metabolic stimulation relative to L-thyroxine: less metabolic stimulation than L-thyroxine
[2]
  capillary growth: increase in capillary growth
[3]; heart failure patients n=9, serum, after 2 weeks (1.875 mg/kg daily)
  Thyrotropin: 0.04 ± 01^++ mU/L
[3]; [7]
  FreeT4: 1.17 ± 0.1^ ng/dL
  ReverseT3: 477 ± 83^++ ng/dL
[3]; [8]
  FreeT4: 1.17 ± 0.15 ng/dL
  Thyrotropin: 0.018 ± 0.0004 mU/L
  ReverseT3: 559 ± 108 ng/dL
[4]; after 4 weeks, baseline 2.10 ± 0.14, P 0.04 vs placebo
  Cardiac Index: 2.54 ± 0.16 liters/min/m^2
[4]; after 4 weeks, baseline 96.2 ± 6.7
  Mean Arterial Pressure: 92.0 ± 5.7 mm Hg
[4]; after 4 weeks, baseline 3,465 ± 319, P 0.02 vs placebo
  Systemic Vascular Resistance: 2,644 ± 257 dynes x sec x cm^−5
[4]; heart failure patients n=9, right heart catheterization, after 4 weeks of treatment, baseline 84.8 ± 4.9
  Heart Rate: 89.6 ± 5.3
[4]; right heart catheterization, after 4 weeks, baseline 8.1 ± 1.7
  Right atrial pressure: 10.5 ± 1.8 mm Hg
[4]; right heart catheterization, after 4 weeks, baseline 24.0 ± 3.9
  Pulmonary artery pressures, Wedge: 21.8 ± 2.75 mm Hg
[4]; right heart catheterization, after 4 weeks, baseline 25.1 ± 4.1
  Pulmonary artery pressures, Diastolic: 25.4 ± 2.5 mm Hg
[4]; right heart catheterization, after 4 weeks, baseline 30.1 ± 5.0
  Pulmonary artery pressures, Mean: 33.4 ± 3.2 mm Hg
[4]; right heart catheterization, after 4 weeks, baseline 45.0 ± 6.2
  Pulmonary artery pressures, Systolic: 49.1 ± 5.3 mm Hg
[4]; thermodilution, after 4 weeks, baseline 4.50 ± 0.36, P 0.07 vs placebo
  Cardiac Output: 5.30 ± 0.36 L/min
[5]; normal volunteers
  echocardiographic parameters: not changed significantly
[5]; after 2 weeks (1.875 mg/kg/day)
  Weight: 83.5 ± 2.6 kg
[5]; after 4 weeks (last 2 weeks 3.75 mg/kg/day)
  Weight: 83.6 ± 2.6 kg
[5]; normal volunteers, 1.875 then 3.75 mg/kg, four weeks
  adverse effects: no adverse effects were noted
[5]; [9]
  Heart Rate: 58.1 ± 3.2 beats/min
  Diastolic Blood Pressure: 76.1 ± 2.9 mm Hg
  Systolic Blood Pressure: 122.0 ± 5.4 mm Hg
[5]; [10]
  Heart Rate: 64.3 ± 3.4 beats/min
  Diastolic Blood Pressure: 71.6 ± 3.8 mm Hg
  Systolic Blood Pressure: 116.3 ± 6.1 mm Hg
[5]; normal volunteers, at either dose
  changes in blood pressure and pulse rate: no significant changes
[5]; normal volunteers, both doses
  tolerability: well tolerated
[6]; heart failure patients n=9, serum, after 2 weeks (1.875 mg/kg daily), baseline 198.9 ± 19.7
  cholesterol: 160.6 ± 14.3^++ ng/dL
[6]; heart failure patients, after 4 weeks
  LDL-cholesterol: 80.5 ± 13.7 mg/dL
[6]; [11]
  decrease in LDL-cholesterol: 25%
  decrease in cholesterol: 24%
[6]; heart failure patients, after four weeks, P=0.005
  decrease in serum triglycerides: 35%
[6]; heart failure patients, after four weeks, text baseline 185.8±46.9 mg/dL, P=0.013
  cholesterol: 140.7 ± 16.2 mg/dL
[6]; [12]
  average decrease in LDL-cholesterol: 17%
  average decrease in cholesterol: 14%
[6]; heart failure patients, after two weeks, P<0.05
  decrease in serum triglycerides: 11%
[6]; heart failure patients, after two weeks, text baseline 185.8±46.9 mg/dL, P<0.05
  cholesterol: 160.6 ± 14.3 mg/dL
[6]; heart failure patients, at two weeks
  LDL-cholesterol: 89.4 ± 12.7 mg/dL
[6]; [13]
  HDL Cholesterol: 30.6 ± 2.0 mg/dL
  Triglyceride: 203.0 ± 30.4^++ mg/dL
[6]; [14]
  HDL Cholesterol: 31.4 ± 3.1 mg/dL
  Triglyceride: 143.7 ± 21.1 mg/dL
[6]; treated for 4 weeks
  patients in whom LDL-cholesterol decreased: 8 of 9
